Measured values from US20200288710A1, “SUBSTITUTED SULPHONAMIDES FOR CONTROLLING ANIMAL PESTS” (BAYER CROPSCIENCE AKTIENGESELLSCHAFT, priority 2016, published 2020).

How the values were obtained:
Type in all cases: in vivo
Meloidogyne incognita = Meloidogyne incognita test; conditions: 336 h, lettuce, after 14 days, read-out: nematicidal efficacy (formation of galls)
Method: Meloidogyne incognita Test Solvent: 125.0 parts by weight of acetone To produce a suitable active compound preparation, 1 part by weight of active compound is mixed with the stated amount of solvent and the concentrate is diluted with water to the desired concentration. Vessels are filled with sand, active compound solution, an egg/larvae suspension of the southern rootknot nematode (Meloidogyne incognita) and lettuce seeds. The lettuce seeds germinate and the plants develop. The galls develop on the roots. After 14 days, the nematicidal efficacy in % is determined by the formation of galls. 100% means that no galls were found; 0% means that the number of galls on the treated plants corresponds to the untreated control.

Myzus persicae [1] = experiment: Myzus persicae spray test (Chinese cabbage leaf discs); conditions: foliar, 120 h, 500 g/ha, after 5-6 days, read-out: efficacy
Method: Myzus persicae—Spray Test Solvent: 78 parts by weight of acetone • • 1.5 parts by weight of dimethylformamide Emulsifier: alkylaryl polyglycol ether To produce a suitable preparation of active compound, 1 part by weight of active compound is dissolved using the specified parts by weight of solvent and made up with water containing an emulsifier concentration of 1000 ppm until the desired concentration is attained. To produce further test concentrations, the formulation is diluted with emulsifier-containing water. Discs of Chinese cabbage leaves (Brassica pekinensis) infested by all stages of the green peach aphid (Myzus persicae) are sprayed with an active compound preparation of the desired concentration. After 5-6 days, the efficacy in % is determined. 100% means that all the aphids have been killed; 0% means that no aphids have been killed.

Myzus persicae [2] = experiment: Myzus persicae oral test; conditions: 120 h, 20 ppm, oral uptake, after 5 days, read-out: efficacy
Method: Myzus persicae—Oral Test Solvent: 100 parts by weight of acetone To produce a suitable preparation of active compound, 1 part by weight of active compound is dissolved using the specified parts by weight of solvent and made up with water until the desired concentration is attained. 50 μl of the active compound preparation are transferred into microtitre plates and made up to a final volume of 200 μl with 150 μl of IPL41 insect medium (33%+15% sugar). Subsequently, the plates are sealed with parafilm, which a mixed population of green peach aphids (Myzus persicae) within a second microtitre plate is able to puncture and imbibe the solution through it. After 5 days, the efficacy in % is determined. 100% means that all the aphids have been killed; 0% means that no aphids have been killed.

SMILES | pest or weed control at 20 ppm (Meloidogyne incognita) | pest or weed control at 500 g/ha (Myzus persicae [1]) | pest or weed control at 20 ppm (Myzus persicae [2])
Cc1ccccc1-c1nc(C(=O)NS(=O)(=O)c2ccccc2)cn1C [Example 50] | 90% |  | 
CCOc1cccc(C(C)C)c1S(=O)(=O)NC(=O)c1cn(C)c(-c2c(F)cccc2F)n1 [Example 384] | 90% |  | 
COc1ccccc1S(=O)(=O)NC(=O)c1cn(C)c(-c2cccc3c2OC(F)(F)O3)n1 [Example 543] | 90% |  | 
COc1ccccc1NS(=O)(=O)NC(=O)c1cn(C)c(-c2c(F)cccc2F)n1 [Example 508] | 90% |  | 
CCc1[nH]c(-c2cc(Cl)cc(Cl)c2)nc1C(=O)NS(=O)(=O)c1ccccc1Cl [Example 254] | 90% |  | 
CC(C)Nc1ccccc1S(=O)(=O)NC(=O)c1cn(C)c(-c2ccccc2Cl)n1 [Example 253] | 90% |  | 
COc1ccc(Cl)c(S(=O)(=O)NC(=O)c2nc(-c3ccccc3F)[nH]c2C)c1 [Example 627] | 90% |  | 
Cn1cc(C(=O)NS(=O)(=O)c2cc(Cl)c(Cl)s2)nc1-c1c(F)cccc1F [Example 355] | 90% |  | 
CCc1[nH]c(-c2ccc(F)cc2F)nc1C(=O)NS(=O)(=O)c1cc(OC)ccc1Cl [Example 244] | 90% |  | 
Cn1cc(C(=O)NS(=O)(=O)c2c(Cl)cccc2Cl)nc1-c1c(F)cc(F)cc1F [Example 4] | 90% |  | 
COc1ccccc1S(=O)(=O)NC(=O)c1cn(C)c(-c2ccncc2)n1 [Example 487] | 90% |  | 
O=C(NS(=O)(=O)c1ccccc1Cl)c1cc(-c2ccccc2Cl)n(-c2ncccc2Cl)n1 [Example 262] | 90% |  | 
COc1ccc(Cl)c(S(=O)(=O)NC(=O)c2cc(-c3ncccc3Cl)n(-c3ccccc3Cl)n2)c1 [Example 457] | 100% |  | 
Cn1nc(-c2c(F)cccc2F)nc1C(=O)NS(=O)(=O)c1ccccc1Br [Example 408] | 90% |  | 
Cn1cc(C(=O)NS(=O)(=O)c2c(C(F)(F)F)cccc2[Si](C)(C)C)nc1-c1c(F)cccc1F [Example 375] | 90% |  | 
Cc1ccc(C(C)C)cc1S(=O)(=O)NC(=O)c1cn(C)c(-c2c(F)cccc2F)n1 [Example 396] | 90% |  | 
Cc1ccccc1NS(=O)(=O)NC(=O)c1cn(C)c(-c2c(F)cccc2F)n1 [Example 504] | 90% |  | 
Cn1cc(C(=O)NS(=O)(=O)c2ccccc2Cl)nc1-c1ccccc1C#N [Example 481] | 90% |  | 
CCc1[nH]c(-c2cccc(Cl)c2Cl)nc1C(=O)NS(=O)(=O)c1ccccc1C [Example 260] | 100% |  | 
Cc1ccccc1S(=O)(=O)NC(=O)c1cn(C)c(-c2csc3ccccc23)n1 [Example 530] | 90% |  | 
Cc1ccccc1S(=O)(=O)NC(=O)c1nc(-c2c(F)cccc2F)nn1C [Example 410] | 90% |  | 
Cc1cccc(C)c1S(=O)(=O)NC(=O)c1cc(-c2ncccc2Cl)n(-c2ccccc2Cl)n1 [Example 267] | 100% |  | 
Cc1ccccc1S(=O)(=O)NC(=O)c1cn(C)c(-c2ccccc2Oc2ccccc2)n1 [Example 485] | 90% |  | 
Cc1ccccc1S(=O)(=O)NC(=O)c1cn(C)c(-c2ccccc2C(C)C)n1 [Example 473] | 90% |  | 
COc1ccccc1S(=O)(=O)NC(=O)c1cn(C)c(-c2ccccc2Oc2ccccc2)n1 [Example 486] | 90% |  | 
CC(C)Cc1ccc(S(=O)(=O)NC(=O)c2cn(C)c(-c3ccccc3Cl)n2)cc1 [Example 288] | 90% |  | 
CCc1[nH]c(-c2c(F)cccc2F)nc1C(=O)NS(=O)(=O)C(C)C [Example 126] |  | 90% | 90%
Cn1cc(C(=O)NS(=O)(=O)c2ccccc2Br)nc1-c1ncccc1Cl [Example 585] |  | 100% | 100%
